Source: PMC5493479 (Methods (San Diego, Calif.), 2016)

Target: T1, HisRS (Histidyl-tRNA synthetase) (Escherichia coli, UniProt P60906)
T1 sequence (P60906 2-424): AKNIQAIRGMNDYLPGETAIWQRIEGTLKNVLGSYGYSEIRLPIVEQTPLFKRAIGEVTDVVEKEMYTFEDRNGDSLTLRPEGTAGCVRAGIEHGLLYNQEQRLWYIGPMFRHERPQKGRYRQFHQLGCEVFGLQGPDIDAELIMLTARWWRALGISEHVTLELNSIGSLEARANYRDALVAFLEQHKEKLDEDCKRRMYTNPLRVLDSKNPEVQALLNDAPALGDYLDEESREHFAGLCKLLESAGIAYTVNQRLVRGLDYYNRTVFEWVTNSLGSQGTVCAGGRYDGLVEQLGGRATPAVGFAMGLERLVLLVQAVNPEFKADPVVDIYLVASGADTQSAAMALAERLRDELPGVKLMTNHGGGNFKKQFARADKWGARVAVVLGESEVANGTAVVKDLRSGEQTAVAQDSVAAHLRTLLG
Experiment: differential scanning fluorimetry
Format: binding
Details: 10 mM ATP; apo Tm 53.4 ± 1.1 °C; 10 uM enzyme, 20 mM HEPES pH 7.5, 150 mM KCl

## Nc1ncnc2c1ncn2[C@@H]1O[C@H](COP(=O)(O)OP(=O)(O)OP(=O)(O)O)[C@@H](O)[C@H]1O [ATP]
  ATP 10 mM Tm (°C): 55.8 ± 0.5 °C
